Results taken from the supplement of paper PMC13380429.

Tests used:
Details in all cases: 72 h
[1] = system: Caco-2; assay: cell viability relative to DMSO; higher = less toxic
[2] = system: Calu-3; assay: as above
[3] = system: HepG2; assay: as above
[4] = system: U2OS; assay: as above
[5] = system: Vero E6; assay: as above
[6] = system: Caco-2; assay: relative viability EC50 (midpoint between 100% and the lowest measured viability); higher = less toxic
[7] = system: Calu-3; assay: as above
[8] = system: HepG2; assay: as above
[9] = system: U2OS; assay: as above
[10] = system: Vero E6; assay: as above
[11] = system: Caco-2; assay: drug sensitivity score (DSS) for viability; higher = more toxic; extreme values may be limits of the assay
[12] = system: Calu-3; assay: as above
[13] = system: HepG2; assay: as above
[14] = system: U2OS; assay: as above
[15] = system: Vero E6; assay: as above

Compound | cell viability ([1]; 1 nM) [%] | cell viability ([1]; 10 nM) [%] | cell viability ([1]; 100 nM) [%] | cell viability ([1]; 1000 nM) [%] | cell viability ([1]; 10000 nM) [%] | cell viability ([2]; 1 nM) [%] | cell viability ([2]; 10 nM) [%] | cell viability ([2]; 100 nM) [%] | cell viability ([2]; 1000 nM) [%] | cell viability ([2]; 10000 nM) [%] | cell viability ([3]; 1 nM) [%] | cell viability ([3]; 10 nM) [%] | cell viability ([3]; 100 nM) [%] | cell viability ([3]; 1000 nM) [%] | cell viability ([3]; 10000 nM) [%] | cell viability ([4]; 1 nM) [%] | cell viability ([4]; 10 nM) [%] | cell viability ([4]; 100 nM) [%] | cell viability ([4]; 1000 nM) [%] | cell viability ([4]; 10000 nM) [%] | cell viability ([5]; 1 nM) [%] | cell viability ([5]; 10 nM) [%] | cell viability ([5]; 100 nM) [%] | cell viability ([5]; 1000 nM) [%] | cell viability ([5]; 10000 nM) [%] | relative viability EC50 [6] [µM] | relative viability EC50 [7] [µM] | relative viability EC50 [8] [µM] | relative viability EC50 [9] [µM] | relative viability EC50 [10] [µM] | drug sensitivity score [11] | drug sensitivity score [12] | drug sensitivity score [13] | drug sensitivity score [14] | drug sensitivity score [15]
O=C(O)CCC(=O)OC[C@@H](NC(=O)C(Cl)Cl)[C@H](O)c1ccc([N+](=O)[O-])cc1 [chloramphenicol-sodium-succinate] | 103 | 95.1 | 98.2 | 100 | 103 | 108 | 97.1 | 97.3 | 91 | 106 | 105 | 114 | 88.3 | 103 | 96.3 | 100 | 96.9 | 98.1 | 99.3 | 102 | 104 | 104 | 96.5 | 102 | 97.2 | > 10 | > 10 | > 10 | > 10 | > 10 | 0 | 0 | 0 | 0 | 0
CC1=CC(=O)c2ccccc2C1=O [menadione] | 100 | 103 | 100 | 104 | 94.2 | 95.8 | 104 | 112 | 97.9 | 106 | 102 | 100 | 116 | 106 | 99 | 95.4 | 101 | 96.4 | 99.7 | 93.1 | 104 | 104 | 99.9 | 102 | 95.1 | > 10 | > 10 | > 10 | > 10 | > 10 | 0 | 0 | 0 | 0 | 0
CCCCCCc1ccc(O)cc1O [hexylresorcinol] | 95.9 | 98.5 | 98.4 | 100 | 94.9 | 91 | 109 | 104 | 97.8 | 99.7 | 105 | 98.7 | 107 | 93.7 | 94 | 98.3 | 101 | 97.5 | 104 | 99.9 | 102 | 101 | 106 | 103 | 96.7 | > 10 | > 10 | > 10 | > 10 | > 10 | 0 | 0 | 0 | 0 | 0
CC(C)C(=O)c1ccc(O)c(O)c1 [U-0521] | 98.6 | 102 | 101 | 88 | 97 | 102 | 96.9 | 102 | 94.4 | 97.4 | 96.3 | 77.3 | 109 | 114 | 105 | 99.8 | 95.4 | 100 | 97.3 | 93.6 | 108 | 104 | 102 | 97.6 | 92.9 | > 10 | > 10 | > 10 | > 10 | > 10 | 0.5 | 0 | 0 | 0 | 0
O=C1NC(c2ccccc2)(c2ccccc2)C(=O)N1COP(=O)(O)O [fosphenytoin] | 97.6 | 102 | 86.3 | 104 | 105 | 89.4 | 97.3 | 90.4 | 87.7 | 102 | 97.1 | 92.7 | 100 | 109 | 91.4 | 98 | 98.5 | 101 | 95.1 | 102 | 110 | 84.9 | 102 | 106 | 94.6 | > 10 | > 10 | > 10 | > 10 | > 10 | 0 | 0 | 0 | 0 | 0
NCC(=O)N[C@@H](CCC(N)=O)C(=O)O [gly-gln] | 95.5 | 92.6 | 92.9 | 102 | 97.7 | 95.9 | 91.9 | 92.7 | 99.2 | 109 | 86.6 | 100 | 91.7 | 106 | 104 | 99.2 | 95.4 | 96.7 | 98.3 | 97.1 | 91.8 | 101 | 91.7 | 94.2 | 107 | > 10 | > 10 | > 10 | > 10 | > 10 | 0 | 0 | 0 | 0 | 0
CSc1ccc(C(=O)c2[nH]c(=O)[nH]c2C)cc1 [enoximone] | 92.8 | 87.2 | 100 | 111 | 87 | 106 | 101 | 94.2 | 96.7 | 101 | 96.6 | 95.8 | 103 | 82.5 | 100 | 99.2 | 97.9 | 101 | 108 | 105 | 99.6 | 99.6 | 86 | 90.6 | 94.9 | > 10 | > 10 | > 10 | > 10 | > 10 | 0 | 0 | 0 | 0 | 0
CCc1cc(Cl)c(OC)c(C(=O)NC[C@@H]2CCCN2CC)c1O [eticlopride] | 102 | 101 | 92.5 | 103 | 87 | 105 | 102 | 103 | 99.9 | 98.5 | 115 | 108 | 121 | 106 | 91.4 | 99.1 | 106 | 96.3 | 103 | 94.8 | 107 | 102 | 106 | 102 | 94.7 | > 10 | > 10 | > 10 | > 10 | > 10 | 0.1 | 0 | 0 | 0 | 0
CCCc1ccc(C(=O)O)cc1 [4-propylbenzoic-acid] | 96.6 | 96.4 | 105 | 89.7 | 106 | 106 | 106 | 101 | 96.4 | 97.2 | 106 | 106 | 93.7 | 104 | 98.3 | 98.5 | 94.9 | 99.8 | 98.9 | 102 | 93.2 | 97.4 | 91.9 | 92.2 | 103 | > 10 | > 10 | > 10 | > 10 | > 10 | 0 | 0 | 0 | 0 | 0
CC1(C)OC(=O)C(OCC2CC2)=C1c1ccc(S(C)(=O)=O)cc1 [firocoxib] | 98.3 | 91.8 | 84.1 | 83.4 | 86.5 | 95.9 | 93.2 | 95.6 | 110 | 104 | 105 | 97.7 | 104 | 103 | 101 | 96.7 | 107 | 95.3 | 97.2 | 102 | 100 | 101 | 99.2 | 96.4 | 98.2 | > 10 | > 10 | > 10 | > 10 | > 10 | 3.5 | 0 | 0 | 0 | 0
Cc1c(CC(C)(C)C(=O)O)n(Cc2ccc(Cl)cc2)c2ccc(F)cc12 | 91.9 | 106 | 98.5 | 97.6 | 99 | 104 | 102 | 96.1 | 95.9 | 88 | 97.2 | 109 | 93.7 | 112 | 110 | 98.7 | 99.4 | 103 | 96.4 | 99.7 | 98.3 | 97.5 | 95.2 | 101 | 108 | > 10 | > 10 | > 10 | > 10 | > 10 | 0 | 0 | 0 | 0 | 0
CC(C)C(N)C(=O)O (stereo in doubt) [L-valine] | 96 | 91.3 | 100 | 98.7 | 102 | 102 | 105 | 95.9 | 93 | 99 | 94.8 | 94.5 | 99 | 96.9 | 99.3 | 101 | 92.7 | 98.1 | 93.5 | 102 | 96.8 | 96.7 | 96.6 | 92.3 | 95.5 | > 10 | > 10 | > 10 | > 10 | > 10 | 0 | 0 | 0 | 0 | 0
CC(=O)NCCC(=O)N[C@@H](Cc1c[nH]cn1)C(=O)O [N-acetylcarnosine] | 97.3 | 105 | 88.7 | 86.5 | 112 | 106 | 99.2 | 94.5 | 101 | 96.3 | 98.8 | 88.3 | 93.3 | 96.2 | 87.9 | 98 | 101 | 101 | 97.5 | 94.7 | 112 | 92.1 | 102 | 108 | 98.4 | > 10 | > 10 | > 10 | > 10 | > 10 | 0 | 0 | 0 | 0 | 0
C=C[C@]1(C)CC[C@@H](C(=C)C)C[C@H]1C(=C)C [beta-elemene] | 95.3 | 98.6 | 97.5 | 92.6 | 102 | 106 | 98.4 | 103 | 97.2 | 102 | 95.8 | 101 | 93.2 | 106 | 103 | 102 | 98 | 97 | 96.4 | 101 | 97.4 | 97.2 | 95.7 | 97.8 | 96.6 | > 10 | > 10 | > 10 | > 10 | > 10 | 0 | 0 | 0 | 0 | 0
